Assay [1] has as its target T1, hMC1r (Homo sapiens, UniProt Q01726). Kind of assay: Competitive inhibition binding assay using [I125]-NDP-α-MSH, hMC1r membranes. The settings on record: human recombinant MC1r, HEK-293 membranes, read-out: MC-1 Ki (average). The protocol: (§1) A competitive inhibition binding assay was performed using membrane homogenates prepared from HEK-293 cells that express recombinant hMC1r or hMC4r (in each instance where the h prefix refers to human), or alternatively membrane homogenates from B16-F10 mouse melanoma cells containing endogenous murine MC1r. In the examples that follow, all MC1r and MC4r values are for human recombinant receptors, unless otherwise noted. Assays were performed in 96 well polypropylene round-bottom plates (VWR catalog number 12777-030). […] After incubation for 90 minutes at 37° C., the assay mixture was filtered onto GF/B Unifilter plates (Perkin-Elmer catalog number 6005177) and washed with 3 mL of ice-cold buffer per well. Filters were air dried and 35 μL of scintillation cocktail added to each well. Plates were counted in a Microbeta counter for bound radioactivity. […] Each assay was conducted in duplicate and the actual mean values are described, with results less than 0% reported as 0%. Ki values for peptides of the present invention were determined using Graph-Pad Prism® curve-fitting software.
(§2) All results are expressed in nM except for Emax values, which are percentage values. Peptides with the captioned primary sequence were synthesized and purified as described in Section 7 above, with the resulting peptide having the structure depicted.

Assay [2] addresses T1, hMC1r. Kind of assay: Assay for agonist activity: cAMP accumulation in HBL melanoma cells. The class given is cell-based. On the set-up: endogenous in cells; host or cells: HBL human melanoma cells. As to conditions: for Emax: HBL, compared to NDP-α-MSH as 100%, read-out: MC-1 Emax (average; cAMP HBL); for EC50: read-out: MC-1 EC50 (average; cAMP HBL). The protocol:
8.2 Assay for Agonist Activity.
Confluent HBL cells that express hMC1r or HEK-293 cells that express recombinant hMC4r were detached from culture plates by incubation in enzyme-free cell dissociation buffer. Dispersed cells were suspended in Earle's Balanced Salt Solution containing 10 mM HEPES (pH 7.5), 1 mM MgCl2, 1 mM glutamine, 0.5% albumin and 0.3 mM 3-isobutyl-1-methyl-xanthine (IBMX), a phosphodiesterase inhibitor. The cells were plated in 96-well plates at a density of 0.4×10^5 cells per well for HBL cells and 0.5×10^5 cells per well for HEK-293 cells and pre-incubated for 10 minutes. Cells were exposed for 15 minutes at 37° C. to peptides of the present invention dissolved in DMSO (final DMSO concentration of 1%) at a concentration range of 0.05-5000 nM in a total assay volume of 200 μL. […] Data analysis was performed by nonlinear regression analysis with Graph-Pad Prism® software.
as §2
On the technique in general: cAMP levels reflect the balance of adenylyl cyclase and phosphodiesterase activity.

For assay [3], the target named is MC4r (Homo sapiens, UniProt P32245). Kind of assay: Competitive inhibition binding assay using [I125]-NDP-α-MSH, hMC4r membranes. Details: expressed in transfected cells; host or cells: HEK-293. As to conditions: human recombinant MC4r, HEK-293 membranes, read-out: MC-4 Ki (average). The protocol: as §1, §2

The values that follow come from US20220088146A1, “Melanocortin Receptor-Specific Peptide Formulations and Methods for Gastrointestinal Tract-Specific Delivery” (Palatin Technologies, Inc., priority 2018, published 2022).

T1 sequence (Q01726 whole entry): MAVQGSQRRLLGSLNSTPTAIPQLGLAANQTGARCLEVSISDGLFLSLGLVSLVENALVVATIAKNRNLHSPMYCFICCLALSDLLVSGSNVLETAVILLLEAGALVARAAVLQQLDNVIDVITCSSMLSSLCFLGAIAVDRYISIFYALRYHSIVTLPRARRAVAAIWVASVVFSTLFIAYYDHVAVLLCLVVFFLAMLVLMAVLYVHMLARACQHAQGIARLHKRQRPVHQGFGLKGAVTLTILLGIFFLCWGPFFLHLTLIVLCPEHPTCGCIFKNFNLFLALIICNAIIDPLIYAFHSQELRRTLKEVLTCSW
MC4r, sequence (P32245 whole entry): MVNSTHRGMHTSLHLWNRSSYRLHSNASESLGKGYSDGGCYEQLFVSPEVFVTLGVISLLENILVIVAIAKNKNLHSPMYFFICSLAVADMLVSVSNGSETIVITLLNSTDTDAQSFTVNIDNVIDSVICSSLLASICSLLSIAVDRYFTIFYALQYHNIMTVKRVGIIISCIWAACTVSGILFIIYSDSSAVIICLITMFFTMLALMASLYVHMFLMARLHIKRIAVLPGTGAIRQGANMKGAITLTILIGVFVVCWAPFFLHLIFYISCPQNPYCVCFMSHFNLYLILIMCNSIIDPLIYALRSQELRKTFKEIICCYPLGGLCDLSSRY

Broadly, the Ki is the equilibrium dissociation constant of an inhibitor or competing ligand from its target. A word on the Emax: it is the size of the effect at its maximum, as opposed to the concentration needed. As a reminder, the EC50 is the concentration needed to bring the measured effect to its halfway point. Regarding `CCCC[C@H](NC(C)=O)C(=O)N[C@H]1CCC(=O)NCCC(C(=O)N[C@@H](Cc2c[nH]c3ccccc23)C(N)=O)NC(=O)[C@H](C)NC(=O)[C@@H](Cc2ccccc2)NC(=O)[C@H](Cc2c[nH]cn2)NC1=O` (stereo partly drawn) [Example 9.35, Ac-Nle-cyclo(Glu-His-D-Phe-Ala-Dab)-Trp-NH2], the inhibition constant (Ki) in assay [1] came to 0.8 nM. For the same compound, in assay [2], the Emax stood at 72% and the half-maximal effective concentration (EC50) worked out at 0.115 nM.

For `CCCCC(NC(C)=O)C(=O)N[C@H]1CCC(=O)NCC[C@@H](C(N)=O)NC(=O)[C@H](C)NC(=O)[C@@H](Cc2ccccc2)NC(=O)[C@H](Cc2c[nH]cn2)NC1=O` (stereo partly drawn) [Example 9.45, Ac-Nle-cyclo(Glu-His-D-Phe-Ala-Dab)-NH2], in assay [1], the Ki turned out to be 645 nM. For the same compound, in assay [2], the Emax stood at 73% and the concentration giving a half-maximal response (EC50) came to 44 nM.

Take `CCCCC(NC(C)=O)C(=O)N[C@H]1CCC(=O)NCC[C@@H](C(=O)N[C@@H](CCCCN)C(N)=O)NC(=O)[C@H](CCCNC(=N)N)NC(=O)[C@@H](Cc2ccccc2)NC(=O)[C@H](Cc2c[nH]cn2)NC1=O` (stereo partly drawn) [Example 9.52, Ac-Nle-cyclo(Glu-His-D-Phe-Arg-Dab)-Lys-NH2]: the Ki in assay [3] was determined as 7370 nM; in assay [1], 2 nM. In assay [2], the Emax came to 91%. For the same compound, the EC50 in assay [2] was 0.175 nM.

With `CCCC[C@H](NC(C)=O)C(=O)N[C@H]1CNC(=O)CCC(=O)NCC[C@@H](C(=O)N[C@@H](Cc2c[nH]c3ccccc23)C(N)=O)NC(=O)[C@H](CCCNC(=N)N)NC(=O)[C@@H](Cc2ccccc2)NC(=O)[C@H](Cc2c[nH]cn2)NC1=O` [Example 9.43, Ac-Nle-cyclo(Dap-His-D-Phe-Arg-Dab)-Trp-NH2], the inhibitory constant (Ki) in assay [3] worked out at 860 nM. Further, in assay [1], the inhibition constant (Ki) is 0.065 nM. In assay [2], the maximal response (Emax) is 85% and the concentration giving a half-maximal response (EC50) is 0.016 nM.

As for `CCCCC(NC(C)=O)C(=O)N[C@H]1CCC(=O)NCC[C@@H](C(N)=O)NC(=O)[C@H](CCCNC(=N)N)NC(=O)[C@@H](Cc2ccccc2)NC(=O)[C@H](Cc2c[nH]cn2)NC1=O` (stereo partly drawn) [Example 9.44, Ac-Nle-cyclo(Glu-His-D-Phe-Arg-Dab)-NH2], the Ki in assay [1] worked out at 7 nM. Further, in assay [2], the Emax came out at 85% and the concentration giving a half-maximal response (EC50) was 0.32 nM.

With `CCCC[C@H](NC(C)=O)C(=O)N[C@H]1CCC(=O)NCC[C@@H](C(=O)N[C@@H](Cc2c[nH]c3ccccc23)C(N)=O)NC(=O)[C@H](CCCNC(=N)N)NC(=O)[C@@H](Cc2ccccc2)NC(=O)[C@H](C)NC1=O` [Example 9.36, Ac-Nle-cyclo(Glu-Ala-D-Phe-Arg-Dab)-Trp-NH2], the maximal response (Emax) in assay [2] was 86%.

As to `CCCC[C@H](NC(C)=O)C(=O)N[C@H]1CCC(=O)NCC[C@@H](C(=O)N[C@@H](Cc2c[nH]c3ccccc23)C(N)=O)NC(=O)[C@H](CCCNC(=N)N)NC(=O)[C@@H](Cc2ccccc2)NC(=O)[C@H](CCN)NC1=O` [Example 9.41, Ac-Nle-cyclo(Glu-Dab-D-Phe-Arg-Dab)-Trp-NH2], the Emax in assay [2] was determined as 108%.
